Our source for the activity in tests values is patent US5714148A, “Chemical compounds” (Zeneca Limited, priority 1992, dated 1998).

A short description of the experiment: Unspecified tests of activity. As to conditions: tests not specified.

SMILES strings stand for the structures.

Take `O=C(O)CC[C@H](NC(=O)Oc1ccc(N(CCI)CCI)cc1)C(=O)O` [Example 33]: the activity in tests entry is “good activity”.
